This assay deals with CEM cells HIV-1 protection, formazan growth assay. Description: NCI AIDS Antiviral Assay. The settings on record: for IC50: measured here: growth of uninfected CEM cells. The gist of the method: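 Human CEM cells, uninfected and HIV-1-infected, exposed to five drug concentrations; growth measured by soluble formazan assay and scored as percent protection from infection, with protecting compounds retested.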

The source made the active and inactive calls.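 How the source made its calls: active means compounds giving half or more protection of infected cells from virus-caused growth loss, again on retest; inactive means the rest.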

The values that follow come from PubChem BioAssay AID179 (DTP/NCI, 2004).

The term EC50 denotes the concentration needed to bring the measured effect to its halfway point. Usually IC50 stands for the concentration needed to halve the response being measured. Read a low IC50 as greater potency in that assay. As for `CCCCCCCCCCCCCCCC[N+]1(C)CC2CCCCC2C1` (configuration not stated), the EC50 is above 2 µM and the concentration for half-maximal inhibition (IC50) amounted to 0.55 µM.

With `CCOC(=O)/C=C1/Oc2ccccc2C1(C)O` (configuration not stated), the EC50 is above 42.7 µM and the IC50 was above 42.7 µM.

For the compound `c1ccc(C2=C(c3ccccc3)C23SCCS3)cc1`, the EC50 was above 200 µM and the IC50 worked out at 33.9 µM.

As to `CC(C)NCC(O)COc1cccc2ccccc12` (configuration not stated), the EC50 was above 200 µM and the IC50 turned out to be 120 µM.

Take `CCSc1nc2c([nH]1)c(=S)n(C)c(=S)n2C`: the EC50 was above 200 µM and the IC50 was determined as 41.7 µM.

With `NC(=O)CNC(=O)c1ccccc1SC(=O)CCCCC[n+]1ccccc1`, the concentration for a half-maximal effect (EC50) is 1.41 µM and the IC50 was found to be 38 µM.

Turning to `CC(C)(C)C1=C(Br)C(O)(C(C)(C)C)OP1(=O)c1ccccc1` (configuration not stated), the EC50 is above 200 µM and the IC50 was 151 µM.

On to `c1ccc(CN2COc3c(c4c(c5ccccc35)OCN(Cc3ccccc3)C4)C2)cc1`, for which the EC50 was above 61.7 µM and the IC50 is above 61.7 µM.

Turning to `Cc1cc2c3c(nc2c2cc[nH]c(C)c12)CCCC3`, the EC50 is above 200 µM and the IC50 is 3.63 µM.

Take `CC1(C)CC(C)(Br)C(Br)C(=O)C1C(O)(C(F)(F)F)C(F)(F)F` (configuration not stated): the EC50 was above 200 µM and the IC50 was 33.1 µM.

`CC(=O)/C(=C\N1CCNC1=S)C(=O)Nc1ccccc1`: the EC50 was above 200 µM and the 50% inhibitory concentration (IC50) was above 200 µM.

For `COC(=O)/C=C1\C=CC=CC12C(C(=O)OC)c1ccccc1C(C(=O)OC)C2C(=O)OC` (configuration not stated), the EC50 is above 200 µM and the 50% inhibitory concentration (IC50) is above 200 µM.

Take `Cc1cc(C)nc(NS(=O)(=O)c2ccc(Nc3c4ccccc4nc4ccc(C(=O)Nc5ccc(S(N)(=O)=O)cc5)cc34)cc2)n1`: the EC50 is above 200 µM and the 50% inhibitory concentration (IC50) is 89.1 µM.

Turning to `O=c1[nH]cnc2c1ncn2[C@@H]1C[C@H]1CO`, the outcome was inactive.

With `O=C(O)c1ccc(CSc2ccccc2C(=O)O)cc1`, the EC50 is above 126 µM and the IC50 is above 126 µM.

In the case of `Cc1cc(=O)n2c(nc3cc(C)c(C)cc32)s1`, the EC50 is above 200 µM and the half-maximal inhibitory concentration (IC50) is above 200 µM.

On to `O=C(NCCCN1CCN(CCCNC(=O)c2cnc3ccccc3n2)CC1)c1cnc2ccccc2n1`, for which the EC50 was above 10 µM and the IC50 is above 10 µM.

With `CC(=O)OCC1OC(OC2C(COC(C)=O)OC(Sc3ccccc3C)C(OC(C)=O)C2OC(C)=O)C(OC(C)=O)C(OC(C)=O)C1OC(C)=O` (configuration not stated), the EC50 was above 25.1 µM and the half-inhibitory concentration (IC50) is above 25.1 µM.

For `CN(/N=C/c1ccccc1O)c1ccc2ccccc2n1`, the EC50 was above 200 µM and the IC50 came to 126 µM.

Turning to `COc1cc2c(cc1OC)C(=O)/C(=C/c1ccccc1)C2`, the EC50 was above 200 µM and the IC50 came out at 151 µM.

As for `Cc1ccc(NC(=O)C2C(=O)C(=O)N(c3ccc(C)cc3)C2=O)cc1` (configuration not stated), the EC50 was above 15.5 µM and the IC50 is above 15.5 µM.

As to `Cn1c(=O)n2n(c1=O)C1C=CC2C2C=C(c3ccccc3)C21` (configuration not stated), the outcome was inactive.

For the compound `COc1ccc(N=Nc2c(N)nn3cc4c(nc23)-c2ccccc2C4)cc1`, the EC50 was above 200 µM.

As for `CN=C(NCCCOC)c1ccc(NC(=O)c2ccc(C(=O)Nc3ccc(C(=NC)NCCCOC)cc3)c([N+](=O)[O-])c2)cc1`, the EC50 is above 200 µM and the IC50 stood at 19.1 µM.

As to `CC(C)(C)[Si](C)(C)OC1C(/C=N\O)OC(n2ccc(=O)[nH]c2=O)C1O[Si](C)(C)C(C)(C)C` (configuration not stated), the EC50 is above 200 µM and the IC50 was 3.55 µM.

For the compound `O=S1(=O)CS(=O)(=O)OCCCCO1`, the EC50 was above 1070 µM and the half-inhibitory concentration (IC50) came out at 63.1 µM.

Regarding `O=C1Cc2c(-c3ccccc3)cc(-c3ccc4ccccc4c3)nc2-c2ccccc2N1`, the EC50 is above 200 µM and the IC50 came to 51.3 µM.

Regarding `Cc1ccc([N+](=O)[O-])cc1NC(=O)C(=O)Cc1cc(=O)oc2cc(O)ccc12`, the EC50 is above 468 µM and the IC50 is 363 µM.

As to `N#C/C(C(=O)Nc1ccc(Cl)cc1)=C(/N)N1CCCC1`, the EC50 is above 200 µM and the IC50 was above 200 µM.

Regarding `O=C(Cc1ccc([N+](=O)[O-])cc1)OCC#CCOC(=O)Cc1ccc([N+](=O)[O-])cc1`, the EC50 was above 200 µM and the IC50 is above 200 µM.

Take `Cc1c(O)c(OC2OC(CO)C(O)C(O)C2O)cc2c1CC[C@@H]1C2(C)C(=O)C[C@]2(C)[C@@H]([C@@](C)(O)C(O)CCC(C)(C)O)[C@H](O)C[C@@]12C` (some centres not stated): the EC50 is above 200 µM and the IC50 was above 200 µM.

For `Cn1ccnc1Sc1c([N+](=O)[O-])ncn1C`, the EC50 is above 1050 µM and the 50% inhibitory concentration (IC50) is 7.94 µM.

Regarding `NC(CSS(=O)(=O)O)=NCCCCc1ccccc1`, the EC50 is above 200 µM and the IC50 was 107 µM.

With `CCCCCC(/C=C/[C@@H]1[C@H]2CC(=O)O[C@H]2C[C@H]1N1CCOCC1)OC1CCCO1` (some centres not stated), the EC50 is above 316 µM and the IC50 is above 316 µM.

Turning to `COc1cc(C(C)c2cc3c(cc2OCCO)OCO3)cc(OC)c1OC` (configuration not stated), the EC50 was above 347 µM and the IC50 was 0.447 µM.

On to `CCOC(=O)C1Sc2ccccc2N=C1C` (configuration not stated), for which the EC50 was above 30.9 µM and the IC50 was above 30.9 µM.

As for `COC(=O)[C@]1(NC(=O)c2ccccc2)C[C@H]1C=O`, the EC50 was above 200 µM and the IC50 was determined as 170 µM.

Turning to `CN(C)c1cccc(NC2=NCCO2)c1`, the EC50 is above 200 µM and the IC50 was 33.9 µM.

For the compound `CC1=C(C(=O)CC(=O)C(=O)Nc2ccccc2)Sc2ccccc2N1`, the EC50 is above 178 µM and the IC50 was above 178 µM.

Take `CN(C)c1ccc(N=C2C=CC(=O)c3ccccc32)cc1`: the EC50 is above 20 µM and the IC50 turned out to be 1.23 µM.

Regarding `COc1ccc(-c2c[se]c(=S)s2)cc1`, the EC50 is above 18.2 µM and the IC50 is above 18.2 µM.

Consider `CCOC(=O)NC(Nc1c(F)c(F)c(F)c(F)c1F)(C(F)(F)F)C(F)(F)F`, for which the EC50 is above 200 µM and the IC50 came to 141 µM.

As to `O=C(NCCn1ccnn1)Nc1ccccc1`, the EC50 was above 200 µM and the IC50 was above 200 µM.

Regarding `CC[C@]1(Cc2ccc(OC)c(OC)c2)C2CC(C(=O)OC)ON2O[C@H](OCc2ccccc2)[C@@H]1OC(C)=O` (some centres not stated), the EC50 was above 200 µM and the IC50 worked out at 102 µM.

Consider `O=C1C(=O)c2ccccc2C(O)=C1CC=C(Cl)Cl`, for which the EC50 is above 126 µM and the IC50 was determined as 0.955 µM.

As for `Cc1cc(NC(=O)C(=O)Cc2nc3ccccc3s2)ccc1Cl`, the EC50 was above 20.9 µM and the 50% inhibitory concentration (IC50) was above 20.9 µM.

As for `COc1ccc(OC2OC(CO)C(OCc3ccccc3)C(OCc3ccccc3)C2OCc2ccccc2)cc1` (configuration not stated), the EC50 was above 200 µM and the IC50 was determined as 12 µM.

Take `CC1=Nc2nc(=NCCCN(C)C)nc3cccc(n23)N1`: the EC50 was above 200 µM and the IC50 is above 200 µM.

As to `Cn1cc2ccccc2c1-c1nc(F)nc(Oc2ccc3c(c2)CC[C@@H]2C3CC[C@@]3(C)C2C[C@H](O)[C@@H]3O)n1` (some centres not stated), the EC50 was above 10 µM and the concentration for half-maximal inhibition (IC50) was above 10 µM.

Take `COC(=O)c1ccc(COC(=O)N2C=CCC2C(=O)O)cc1` (configuration not stated): the EC50 is above 200 µM and the IC50 is above 200 µM.

For the compound `CC(=N\NC(=O)c1ccccc1)/C(C)=N/NC(=O)c1ccccc1`, the EC50 is above 30.9 µM and the IC50 was above 30.9 µM.

Turning to `O=C(O/N=C1/CCCC/C1=C\c1ccccc1)c1ccc(Cl)c(Cl)c1`, the outcome was inactive.

Take `N#CC1(C#N)C2CCCCC23OC(=N)C1(C#N)C(c1ccco1)O3` (configuration not stated): the EC50 is above 200 µM and the concentration for half-maximal inhibition (IC50) came to 5.75 µM.

As to `C=CC(C)(O)CN(C=O)Cc1ccccc1` (configuration not stated), the EC50 is above 589 µM and the IC50 is above 589 µM.

Turning to `NC1(C(=O)O)C2CC3CC(C2)CC1C3` (configuration not stated), the outcome was inactive.

As to `CC(C)=C1C(=O)C[C@@]2(C)C[C@H]3OC3(C)CC/C=C(/C)CCC12` (some centres not stated), the result was inactive.

For `COc1cc(C2C(Cl)C(=O)N2NC(=O)c2ccccc2O)ccc1O` (configuration not stated), the EC50 is above 27.5 µM and the concentration for half-maximal inhibition (IC50) was above 27.5 µM.

Regarding `CCCCCC(=O)c1ccc2[nH]c3c(C)cc([N+](=O)[O-])c(C)c3c2c1`, the EC50 was above 4.27 µM and the concentration for half-maximal inhibition (IC50) was above 4.27 µM.

On to `CCO/C=C1\N=C(c2ccccc2Br)OC1=O`, for which the EC50 was above 316 µM and the half-inhibitory concentration (IC50) was above 316 µM.

Take `COc1ccc(C(C(N)=O)N2CCOCC2)cc1` (configuration not stated): the EC50 is 129 µM and the IC50 is above 200 µM.

With `C=CCCC1(O)C(O)C(CO)O[C@H](O[C@@]2(CO)OC(CO)C(O)C2O)C1O` (some centres not stated), the outcome was inactive.

Take `CCOP(=O)(OCC)/C(C#N)=C/c1ccoc1`: the EC50 is above 977 µM and the IC50 was above 977 µM.

Regarding `COc1ccc(N2C(=O)CC(c3c[nH]c4ccccc34)C2=O)cc1` (configuration not stated), the EC50 is above 200 µM and the IC50 came to 182 µM.

Consider `COc1cc(C2SCC(=O)N2c2ccc(-c3ccc(-n4c(-c5ccccc5)nc5ccccc5c4=O)cc3)cc2)cc(OC)c1OC` (configuration not stated), for which the EC50 is above 200 µM and the IC50 came out at 14.8 µM.

For the compound `Cc1c(C(=O)C/C(=N/NC(=O)c2ccccc2O)C(=O)Nc2ccccc2C(C)C)[n+](=O)c2ccccc2n1[O-]`, the EC50 is above 6.92 µM and the IC50 was above 6.92 µM.

`CC(=O)NN1CCN(C)CC1`: the EC50 was above 200 µM and the IC50 is above 200 µM.

Consider `COc1cc(Br)c(C=Nc2cccc3ccc(OS(=O)(=O)c4ccc([N+](=O)[O-])cc4)cc23)cc1OC`, for which the EC50 is above 17.4 µM and the IC50 was above 17.4 µM.

Regarding `OC1CCOC1(O)c1ccccn1` (configuration not stated), the EC50 was above 200 µM and the IC50 is above 200 µM.

Turning to `Cc1c2c(n3c(nc4ccccc43)c1C#N)N(c1ccc(Cl)cc1)CC2`, the EC50 is above 50.1 µM and the IC50 is above 50.1 µM.

As for `CCCCCCCCCCCCCOC(=O)CC(C(=O)OCCCCCCCCCCCCC)S(=O)(=O)O` (configuration not stated), the EC50 is above 200 µM and the 50% inhibitory concentration (IC50) amounted to 102 µM.

As for `OCC1OC(n2ccc3cnccc32)CC1O` (configuration not stated), the result was inactive.

For the compound `COc1cc(C(=O)N(C(=O)N2CCCCC2)c2ccccc2)cc(OC)c1OC`, the EC50 is above 200 µM and the IC50 was above 200 µM.

As to `O=C(N/C(=C\c1cc(Cl)ccc1Cl)c1nc2ccc(Cl)cc2[nH]1)c1ccccc1`, the result was inactive.
